Experimental data reported in PMC8587756, “Spirostanol Saponins from Flowers of Allium Porrum and Related Compounds Indicating Cytotoxic Activity and Affecting Nitric Oxide Production Inhibitory Effect in Peritoneal Macrophages” (Molecules, 2021).
Like-named read-outs stand apart in the source and are kept apart here.

Columns and labels:
[1] = test system: NO production in mouse peritoneal cells; assay: Nitric oxide production induced by LPS and IFN-γ in mouse peritoneal cells (Griess reagent); format: cell-based; conditions: for effect on production of NO (in words): LPS + IFN-γ, 24 h, Figure 3B; for inhibitory effects (in words): tested up to 25 µM; for IC50: LPS 0.1 ng/mL + IFN-γ 5 ng/mL, nitrites at 24 h, read-out: Nitric Oxide, IC50 (95% Limits of Confidence)
Description: Biological effects of studied compounds were evaluated in vitro, using mouse (C57BL6, Charles River Deutschland, Sulzfeld, Germany) peritoneal cells. Animals, killed by cervical dislocation, were i.p. injected with 8 mL of sterile saline. Pooled peritoneal cells collected from mice (n = 4–6 in individual experiments) were washed, re-suspended in culture medium, and seeded into 96-well round-bottom microplates (Costar, Corning, NY, USA) in 100-μL volumes, 2 × 10^5 cells/well. All experimental variants were run in duplicate. Complete RPMI-1640 culture medium (Sigma-Aldrich, St. Louis, MO, USA) contained 10% heat-inactivated foetal bovine serum, 2 mM L-glutamine, 50 μg/mL gentamicin, and 5 × 10^−5 M 2-mercaptoethanol (all Sigma-Aldrich). Cultures were maintained at 37 °C, 5% CO2 in humidified incubator (Sanyo Electric Biomedical, Osaka, Japan). The Institution Animal Ethics Committee (No. 13/2006) approved the animal welfare and all experimental procedures.
High output NO production was induced by mixture of lipopolysaccharide (LPS from E. coli 0111:B4, 0.1 ng/mL; Sigma) and murine recombinant interferon-γ (IFN-γ, 5 ng/mL; R&D Systems, Minneapolis, MN, USA) in mouse peritoneal cells. Tested compounds were applied concomitantly with these priming stimuli. The concentration of nitrites in supernatants of cells was assayed at the interval of 24 h. It was detected in individual, cell-free samples (50 μL) incubated 5 min at ambient temperature with an aliquot of a Griess reagent (1% sulphanilamide/0.1% naphtylendiamine/2.5% H3PO4). The absorbance at 540 nm was recorded using a microplate spectrophotometer (Tecan, Grödig, Austria). A nitrite calibration curve was used to convert absorbance to μM nitrite.
Estimates of 50% inhibitory concentrations of compounds (IC50, and CC50), correlation analysis, and graphical presentation of data were done using the Prism program (GraphPad Software, San Diego, CA, USA).

[2] = Cell viability / cytotoxicity, LDH assay in mouse peritoneal cells; format: cell-based
Description: (§1) Biological effects of studied compounds were evaluated in vitro, using mouse (C57BL6, Charles River Deutschland, Sulzfeld, Germany) peritoneal cells. Animals, killed by cervical dislocation, were i.p. injected with 8 mL of sterile saline. Pooled peritoneal cells collected from mice (n = 4–6 in individual experiments) were washed, re-suspended in culture medium, and seeded into 96-well round-bottom microplates (Costar, Corning, NY, USA) in 100-μL volumes, 2 × 10^5 cells/well. All experimental variants were run in duplicate. […] Cultures were maintained at 37 °C, 5% CO2 in humidified incubator (Sanyo Electric Biomedical, Osaka, Japan).
(§2) Viability of cells was analysed using the LDH (lactate dehydrogenase) assay. It is based on the determination of lactate dehydrogenase activity released from the cytosol of damaged cells into cell supernatant. The supernatants were harvested at the interval of 22 h of culture, diluted 1:1, and mixed with an aliquot of the LDH kit (Sigma-Aldrich, St. Louis, MO, USA). After 30-min incubation in the dark at ambient temperature, the reaction was stopped with 2 N HCl. […] Triton (1%) was used to induce 100% cell death. All control and experimental variants were run in quadruplicate.

mouse peritoneal cells = assay: as above; format: cell-based
Description: as §1, §2

[3] = test system: murine monocyte/macrophage cell line J-774; set-up: method as in PMID 9358643; conditions: 24 h, MTT assay; cited from earlier work
[4] = test system: RAW 246.7 macrophages and lymphocytes; set-up: method as in PMID 26329920; conditions: different concentrations, 72 h, MTT assay; cited from earlier work
[5] = test system: murine leukemia cells P388; set-up: method as in PMID 9836426; conditions: cancer murine leukemia cells P388; cited from earlier work
[6] = mouse peritoneal cells, LDH assay, 24 h, Figure 3A
[7] = C57BL6, mouse peritoneal cells, LDH assay, cultured 24 h (supernatants harvested at 22 h), read-out: Cytotoxicity CC50 (95% Limits of Confidence)

Which results are given for C[C@@H]1CC[C@@]2(OC1)O[C@H]1CC3C4CCC5C[C@@H](O[C@@H]6O[C@H](CO)[C@H](O[C@@H]7O[C@H](CO)[C@@H](O)[C@H](O[C@@H]8OC[C@@H](O)[C@H](O)[C@H]8O)[C@H]7O[C@@H]7O[C@H](CO)[C@@H](O)[C@H](O)[C@H]7O)[C@H](O)[C@H]6O)[C@H](O)C[C@]5(C)C4CC[C@]3(C)C1[C@@H]2C (stereo partly shown) [Compound 2, 6-deoxy-aginoside]?
effect on production of NO (in words) [1]: inhibited the production of NO; CC50 at 22 h ([2]; C57BL6, mouse): 5.7 µM; cytotoxic effects in model immune cells (in words) (mouse peritoneal cells): strong cytotoxic effects; concentration at onset of cell viability decline (mouse peritoneal cells; [6]): approximately 4 µM

With CC1CCC2(OC1)OC1CC3C4CC(O)C5CC(OC6OC(CO)C(OC7OC(CO)C(O)C(OC8OCC(O)C(O)C8O)C7OC7OC(CO)C(O)C(OC8OC(CO)C(O)C(O)C8O)C7O)C(O)C6O)C(O)CC5(C)C4CCC3(C)C1C2C (stereo not shown) [Compound 3] as the compound, how does the “effect on production of NO (in words)” value [1] read?
The value was “inhibited the production of NO”.

What about the CC50 at 22 h ([2]; C57BL6, mouse) of the same compound?
The CC50 at 22 h was 7.21 µM.

What about the “cytotoxic effects in model immune cells (in words)” value (shortened to “cytotoxic effects”) (mouse peritoneal cells) of the same compound?
The value was “strong cytotoxic effects”.

What about the “concentration at onset of cell viability decline” value (“concentration at onset” for short) (mouse peritoneal cells; [6]) of the same compound?
Its value is “approximately 4 µM”.

With CC1CC[C@@]2(OC1)O[C@H]1C[C@H]3[C@@H]4C[C@@H](O)C5C[C@@H](O)[C@H](O)C[C@]5(C)[C@H]4CC[C@]3(C)[C@H]1[C@@H]2C (stereo partly drawn) [Compound 4, spirostan-2α, 3β, 6β–triol] as the compound, how does the “inhibitory effects (in words)” value [1] read?
Its value is “devoid of any inhibitory effects”.

What about the “cytotoxicity (in words)” value [3] of the same compound?
The value was “did not show cytotoxicity”.

And the CC50 at 22 h ([2]; C57BL6, mouse)?
Its CC50 at 22 h is over 100 µM.

Which IC50 [1] does the source give for C[C@@H]1CC[C@@]2(OC1)O[C@H]1C[C@H]3[C@@H]4CC=C5C[C@@H](O)CC[C@]5(C)[C@H]4CC[C@]3(C)[C@H]1[C@@H]2C [Compound 7, diosgenin] here?
The IC50 was over 100 µM.

What about the “inhibitory effects (in words)” value [1] of the same compound?
Its value is “devoid of any inhibitory effects”.

What about the “cytotoxicity (in words)” value [4] of the same compound?
The value was “No changes in cytotoxicity”.

And the CC50 at 22 h [2, 7]?
Its CC50 at 22 h is over 100 µM.

Which IC50 [1] does the source give for “tomatonin [Compound 6, reference compound]” here?
Its IC50 is 7.19 µM.

And the “effect on production of NO (in words)” value [1]?
The value was “inhibited the production of NO”.

And the “concentration at onset” value (mouse peritoneal cells; [6])?
Its value is “approximately 4 µM”.

What about the “cytotoxic effects” value (mouse peritoneal cells; [6]) of the same compound?
Its value is “strong cytotoxic effects”.

What about the CC50 (mouse peritoneal cells; mouse peritoneal cells, LDH assay, cultured 24 h (supernatants harvested at 22 h), read-out: Cytotoxicity CC50 (95% Limits of Confidence)) of the same compound?
Its CC50 is 9.9 µM.

For C[C@@H]1CC[C@@]2(OC1)O[C@H]1CC3C4C[C@@H](O)C5C[C@@H](O[C@@H]6O[C@H](CO)[C@H](O[C@@H]7O[C@H](CO)[C@@H](O)[C@H](O[C@@H]8OC[C@@H](O)[C@H](O)[C@H]8O)[C@H]7O[C@@H]7O[C@H](CO)[C@@H](O)[C@H](O)[C@H]7O)[C@H](O)[C@H]6O)[C@H](O)C[C@]5(C)C4CC[C@]3(C)C1[C@@H]2C (stereo partly shown) [Compound 1, aginoside], which “cytotoxicity IC50” value [5] is on record?
Its value is 2.1 µg/mL.

And the “effect on production of NO (in words)” value [1]?
The value was “inhibited the production of NO”.

And the CC50 at 22 h ([2]; C57BL6, mouse)?
Its CC50 at 22 h is 11.1 µM.

What about the “cytotoxic effects” value (mouse peritoneal cells) of the same compound?
The value was “strong cytotoxic effects”.

And the “concentration at onset” value (mouse peritoneal cells; [6])?
Its value is “approximately 4 µM”.

What does the source list for C[C@@H]1CC[C@@]2(OC1)O[C@H]1[C@@H](O)[C@H]3[C@@H]4CC[C@H]5C[C@@H](O[C@@H]6O[C@H](CO)[C@H](O[C@@H]7O[C@H](CO)[C@@H](O)[C@H](O[C@@H]8OC[C@@H](O)[C@H](O)[C@H]8O)[C@H]7O[C@@H]7O[C@H](CO)[C@H](O)[C@H](O[C@@H]8O[C@H](CO)[C@@H](O)[C@H](O)[C@H]8O)[C@H]7O)[C@H](O)[C@H]6O)[C@H](O)C[C@]5(C)[C@H]4CC[C@]3(C)[C@H]1[C@@H]2C [Compound 5, digitonin, reference compound]?
IC50 [1]: 5.52 µM; effect on production of NO (in words) [1]: inhibited the production of NO; CC50 at 22 h [2, 7]: 5.83 µM; concentration at onset of cell viability decline (mouse peritoneal cells; [6]): approximately 4 µM; cytotoxic effects in model immune cells (in words) (mouse peritoneal cells; [6]): strong cytotoxic effects

Which “cytotoxicity IC50” value [5] does the source give for C[C@@H]1CC[C@@]2(OC1)O[C@H]1C[C@H]3[C@@H]4CC=C5C[C@@H](O[C@@H]6O[C@H](CO)[C@@H](O[C@@H]7O[C@@H](C)[C@H](O)[C@@H](O)[C@H]7O)[C@H](O)[C@H]6O[C@@H]6O[C@@H](C)[C@H](O)[C@@H](O)[C@H]6O)CC[C@]5(C)[C@H]4CC[C@]3(C)[C@H]1[C@@H]2C [dioscin, reference compound] here?
Its value is 0.092 µg/mL.
